In test [1] the test system is breast carcinoma cell line MCF7. Briefly: Cell cycle profile by BrdU/propidium iodide flow cytometry. It counts as cell-based. The following applies: asynchronously growing MCF7, 24 h, FIG. 1. As for the experimental part:
Sub-confluent cells were treated with test compounds at different concentrations for 24 h. The cultures were pulse-labeled with […] 5-bromo-20-deoxyuridine (BrdU) for 30 min at 37° C. prior to harvesting. The cells were then washed in PBS, fixed with 70% ethanol, and denatured in 2 M HCl. Following neutralization, the cells were stained with anti-BrdU fluorescein-labeled antibodies, washed, stained with propidium iodide and analyzed by flow cytometry using a 488 nm laser
(In general: Flow cytometry measures light scatter and fluorescence of single cells or particles in a stream.)

A further test relates to PARP-1. Briefly: Immunoblotting of apoptotic markers in HCT116 cells: PARP-1. It counts as cell-based. The following applies: 24 hours, FIG. 4. The protocol:
Effect of novel compounds on apoptosis was confirmed by immunoblotting analysis of selected apoptotic proteins. For immunoblotting, cell were harvested, washed three times with ice-cold PBS and lysed in a buffer (50 mM Tris, pH 7.4, 250 mM NaCl, 5 mM EDTA, 50 mM NaF, 1 mM Na3VO4, 1% Nonidet P40) containing mixture of protease and phosphatase inhibitors (Sigma-Aldrich). 20 μg of total proteins were separated by SDS-polyacrylamide gel electrophoresis (SDS-PAGE) and transferred onto nitrocellulose membranes. Membranes were blocked in 5% milk and 0.1% Tween 20 in PBS and probed overnight with specific antibodies. Specific antibodies were purchased from SigmaAldrich (anti a-tubulin, clone DM1A), Santa Cruz Biotechnology (anti-Mcl-1, clone S-19; anti-PARP, clone F-2; anti-Mdm-2, clone SMP14; anti-Bcl-2), DAKO Cytomation Cell Signaling (anti-PUMA) or were a generous gift from Dr. B. Vojtesek (anti-p53, clone DO-1). All primary antibodies were diluted in PBS containing 5% powdered milk; 0.1% Tween 20. Peroxidase conjugated rabbit anti-mouse immunoglobulin or porcine anti-rabbit immunoglobulin antisera (DAKO) were used as the secondary antibodies and visualised with ECL reagents (GE-Healthcare Life Sciences).
(In western blotting, separated proteins are transferred to a membrane and probed.)

For test [2], the system named is MV4;11 (acute myelocytic leukemia). Briefly: MTT cytotoxicity assay, leukemic cell line MV4;11. Type of test: cell-based. The following applies: Homo sapiens, MV4-11, 72 h, three days. The method in brief:
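Three-day exposure to compounds spanning 100–0.01 μM was followed by a 5 h MTT incubation, after which the formazan was taken up in DMSO and measured at 620 nm. Cultures were in RPMI plus FBS and L-glutamine, with untreated cells as reference.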
(Tetrazolium assays rely on reduction of a dye to a coloured formazan, in cell work by metabolically active cells.)

In test [3] the test system is HUVECs (human umbilical vein endothelial cells). Briefly: HUVEC proliferation assay (crystal violet). It counts as cell-based. The following applies: Homo sapiens, HUVEC, 72 h, read-out: Inhibition of proliferation (EC50). The method in brief: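 Passage-3 HUVECs in endothelial growth medium with 10% FCS; 1.5×10^3 cells cultured 24 h, then treated with compounds or left untreated for 72 h. Proliferation read out by crystal violet staining.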

Test [4] deals with G361 (malignant melanoma). Briefly: MTT cytotoxicity assay, solid cancer cell line G361. The following applies: Homo sapiens, G-361, 72 h, three days. It counts as cell-based. In a few lines:
(§1)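 Viability is scored by MTT reduction after a three-day incubation with compound (100 to 0.01 μM, triplicates) in DMEM with serum and L-glutamine. Medium is swapped for DMSO after five hours with MTT and plates are read at 620 nm, untreated wells serving as reference.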

The next test concerns the target T1, CDK5/p35 (Homo sapiens, UniProt Q00535).
T1 construct: purchased ProQinase GmbH
Briefly: CDK5/p35 kinase inhibition (33P-ATP, histone H1). Type of test: biochemical. The following applies: 0.15 μM ATP. As for the experimental part: CDK2/Cyclin E kinase was produced in Sf9 insect cells via baculoviral infection and purified on a NiNTA column (Qiagen). […] CDK5/p35 was purchased from ProQinase GmbH.
The reactions were stopped by adding 5 μL of 3% aq H3PO4. Aliquots were spotted onto P-81 phosphocellulose (Whatman), washed 3× with 0.5% aq H3PO4 and finally air-dried.

Test [5] has as its system PLC/PRF/5 (liver hepatoma). Briefly: MTT cytotoxicity assay, solid cancer cell line PLC/PRF/5. The conditions noted are these: Homo sapiens, PLC-PRF-5, 72 h, three days. Type of test: cell-based. The method in brief:
as §1

Each structure is given as a SMILES string.

What is called IC50 is the concentration at which inhibition is half-maximal. Read a low IC50 as inhibition by little substance.

T1 sequence (Q00535 whole entry): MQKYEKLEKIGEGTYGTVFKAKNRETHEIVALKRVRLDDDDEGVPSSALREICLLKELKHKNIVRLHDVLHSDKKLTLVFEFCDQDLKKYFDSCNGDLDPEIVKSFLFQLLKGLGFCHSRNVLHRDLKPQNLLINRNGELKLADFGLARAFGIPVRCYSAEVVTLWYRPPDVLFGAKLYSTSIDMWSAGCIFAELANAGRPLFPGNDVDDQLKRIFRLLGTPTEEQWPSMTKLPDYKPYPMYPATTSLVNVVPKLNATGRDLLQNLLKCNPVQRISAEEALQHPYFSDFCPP
T1 sequence (Q15078 whole entry partner): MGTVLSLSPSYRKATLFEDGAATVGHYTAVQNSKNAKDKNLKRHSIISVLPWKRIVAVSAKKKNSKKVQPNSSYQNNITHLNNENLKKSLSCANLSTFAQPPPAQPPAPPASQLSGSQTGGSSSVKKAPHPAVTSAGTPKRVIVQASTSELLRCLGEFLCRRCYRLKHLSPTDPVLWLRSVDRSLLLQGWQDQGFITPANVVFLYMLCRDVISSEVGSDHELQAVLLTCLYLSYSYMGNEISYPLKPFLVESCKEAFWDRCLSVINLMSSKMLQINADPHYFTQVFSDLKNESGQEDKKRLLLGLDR

Regarding `CC(C)c1[nH]nc2c(NCc3ccc(-c4ccccn4)cc3)nc(NCC(O)CN)nc12` (stereo not shown) [Compound 45], the “effect on the cell cycle of MCF7” value in test [1] was “potently arrested cells in S, G2 and M phases”. For the same compound, the “PARP-1 cleavage (immunoblot)” value in the test with PARP-1 is given as “appearance of the caspase-3-cleaved PARP-1 fragment at 89 kDa”. The IC50 came to 0.51 µM in test [2], 0.22 µM in test [4], 0.017 µM at CDK5/p35 and 0.2 µM in test [5]. For the same compound, the EC50 in test [3] was 176 nM.

Values taken from patent publication US9957273B2, “5-substituted 7- [4-(2-pyridyl)phenylmethylamino] -3-isopropylpyrazolo4,3-D]pyrimidine derivatives, use thereof as medicaments, and pharmaceutical compositions” (USTAV EXPERIMENTALNI BOTANIKY AV CR, V.V.I., priority 2015, dated 2018).
